According to patent US4421760A, “β-Lactam antibiotic, its preparation and use” (Beecham Group Limited, priority 1980, dated 1983):
≈ marks a conversion by molar mass, not a printed value. Where two headings read alike, the source gives them in different places.

Tests used:
Bacillus subtilis A = experiment: Antibacterial activity, microtitre method; assay type: cell-based
Description: (§1) The antibacterial activity of the preparation of MM 27696 described in the example has been determined by the microtitre method and is reported in The Table.
(§2) Antibacterial Activity of MM 27696 sodium salt determined
(§3) by the Microtitre Method

Citrobacter freundii E8 = experiment: Antibacterial activity, microtitre method; assay type: cell-based
Description: as §1, §2, §3

E. coli ESS = experiment: Antibacterial activity, microtitre method; assay type: cell-based; details: Escherichia coli
Description: as §1, §2, §3

Enterobacter cloacae N1 = experiment: Antibacterial activity, microtitre method; assay type: cell-based
Description: as §1, §2, §3

Escherichia coli 0111 = experiment: Antibacterial activity, microtitre method; assay type: cell-based
Description: as §1, §2, §3

Escherichia coli JT 39 = experiment: Antibacterial activity, microtitre method; assay type: cell-based; details: JT39
Description: as §1, §2, §3

Klebsiella aerogenes A = experiment: Antibacterial activity, microtitre method; assay type: cell-based
Description: as §1, §2, §3

Proteus mirabilis C977 = experiment: Antibacterial activity, microtitre method; assay type: cell-based
Description: as §1, §2, §3

Proteus morganii I580 = experiment: Antibacterial activity, microtitre method; assay type: cell-based; details: Morganella morganii
Description: as §1, §2, §3

Proteus rettgeri WM16 = experiment: Antibacterial activity, microtitre method; assay type: cell-based; details: Providencia rettgeri
Description: as §1, §2, §3

Proteus vulgaris W091 = experiment: Antibacterial activity, microtitre method; assay type: cell-based
Description: as §1, §2, §3

Pseudomonas aeruginosa A = experiment: Antibacterial activity, microtitre method; assay type: cell-based
Description: as §1, §2, §3

[1] = test system: Salmonella typhimurium CT10; experiment: Antibacterial activity, microtitre method; assay type: cell-based; details: Salmonella enterica
Description: as §1, §2, §3

Serratia marcescens US20 = experiment: Antibacterial activity, microtitre method; assay type: cell-based
Description: as §1, §2, §3

Shigella sonnei MB 11967 = experiment: Antibacterial activity, microtitre method; assay type: cell-based; details: MB11967
Description: as §1, §2, §3

[2] = test system: Staphylococcus aureus 1517; experiment: Antibacterial activity, microtitre method; assay type: cell-based
Description: as §1, §2, §3

[3] = test system: Staphylococcus aureus Oxford; experiment: Antibacterial activity, microtitre method; assay type: cell-based
Description: as §1, §2, §3

[4] = test system: Staphylococcus aureus Russell; experiment: Antibacterial activity, microtitre method; assay type: cell-based
Description: as §1, §2, §3

Streptococcus faecalis I = experiment: Antibacterial activity, microtitre method; assay type: cell-based; details: Enterococcus faecalis
Description: as §1, §2, §3

[5] = test system: Streptococcus pneumoniae CN33; experiment: Antibacterial activity, microtitre method; assay type: cell-based
Description: as §1, §2, §3

[6] = test system: Streptococcus pyogenes CN10; experiment: Antibacterial activity, microtitre method; assay type: cell-based
Description: as §1, §2, §3

E. coli JT4 β-Lactamase = E. coli JT4 β-Lactamase (Escherichia coli, UniProt P62593); experiment: β-Lactamase inhibitory activity; assay type: biochemical; details: read-out: β-Lactamase Inhibitory Activity I50 (converted)
E. coli JT4 β-Lactamase, sequence (P62593 24-286 limits assumed): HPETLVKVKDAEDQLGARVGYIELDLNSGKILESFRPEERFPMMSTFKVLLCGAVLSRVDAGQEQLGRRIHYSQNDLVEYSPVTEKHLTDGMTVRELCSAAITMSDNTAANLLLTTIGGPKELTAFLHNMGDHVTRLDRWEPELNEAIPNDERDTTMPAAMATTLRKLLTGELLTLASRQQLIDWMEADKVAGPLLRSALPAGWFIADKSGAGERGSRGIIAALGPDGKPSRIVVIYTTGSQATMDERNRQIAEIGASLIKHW
Method: (§4) β-Lactamase Inhibitory Activity of MM 27696 sodium salt
(§5) b = without preincubation

[7] = biological target: Enterobacter cloacae P99 β-Lactamase (Enterobacter cloacae, UniProt P05364); experiment: β-Lactamase inhibitory activity; assay type: biochemical; details: read-out: β-Lactamase Inhibitory Activity I50 (converted)
Enterobacter cloacae P99 β-Lactamase, sequence (P05364 21-381): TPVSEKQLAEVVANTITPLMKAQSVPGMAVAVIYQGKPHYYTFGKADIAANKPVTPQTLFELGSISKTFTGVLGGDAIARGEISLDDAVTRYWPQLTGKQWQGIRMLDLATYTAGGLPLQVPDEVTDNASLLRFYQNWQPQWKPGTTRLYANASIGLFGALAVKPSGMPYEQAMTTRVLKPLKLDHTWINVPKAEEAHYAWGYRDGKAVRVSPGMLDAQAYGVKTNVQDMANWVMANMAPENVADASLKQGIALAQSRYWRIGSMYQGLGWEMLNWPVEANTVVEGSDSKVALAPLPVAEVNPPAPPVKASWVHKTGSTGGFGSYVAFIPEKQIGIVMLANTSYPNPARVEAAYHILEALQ
Method: as §4, §5

[8] = biological target: Klebsiella aerogenes E70 β-Lactamase; experiment: β-Lactamase inhibitory activity; assay type: biochemical
Method: as §4, §5

[9] = biological target: S. aureus Russell β-Lactamase (Staphylococcus aureus, UniProt P00807); experiment: β-Lactamase inhibitory activity; assay type: biochemical; details: read-out: β-Lactamase Inhibitory Activity I50 (converted)
S. aureus Russell β-Lactamase, sequence (P00807 25-281): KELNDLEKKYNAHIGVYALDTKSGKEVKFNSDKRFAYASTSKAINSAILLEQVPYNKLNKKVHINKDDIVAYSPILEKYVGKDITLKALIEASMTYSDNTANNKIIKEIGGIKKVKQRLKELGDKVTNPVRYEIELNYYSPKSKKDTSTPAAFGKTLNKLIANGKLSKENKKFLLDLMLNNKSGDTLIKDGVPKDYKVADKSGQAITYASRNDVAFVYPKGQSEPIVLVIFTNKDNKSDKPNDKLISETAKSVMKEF
Method: as §4, §5

## CCC(=O)N/C=C/SC1=C(C(=O)O)N2C(=O)[C@@H]([C@H](C)OS(=O)(=O)O)[C@H]2C1 [MM 27696]
Bacillus subtilis A
  MIC: < 0.1 µg/mL
Citrobacter freundii E8
  MIC: 3.1 µg/mL (≈ 7.63 µM)
E. coli ESS
  MIC: < 0.1 µg/mL
Enterobacter cloacae N1
  MIC: 0.2 µg/mL (≈ 0.492 µM)
Escherichia coli 0111
  MIC: 0.8 µg/mL (≈ 1.97 µM)
Escherichia coli JT 39
  MIC: 0.2 µg/mL (≈ 0.492 µM)
Klebsiella aerogenes A
  MIC: 0.4 µg/mL (≈ 0.984 µM)
Proteus mirabilis C977
  MIC: < 0.1 µg/mL
Proteus morganii I580
  MIC: 0.2 µg/mL (≈ 0.492 µM)
Proteus rettgeri WM16
  MIC: 0.4 µg/mL (≈ 0.984 µM)
Proteus vulgaris W091
  MIC: 0.4 µg/mL (≈ 0.984 µM)
Pseudomonas aeruginosa A
  MIC: 50 µg/mL (≈ 123 µM)
[1]
  MIC: 0.2 µg/mL (≈ 0.492 µM)
Serratia marcescens US20
  MIC: 6.2 µg/mL (≈ 15.3 µM)
Shigella sonnei MB 11967
  MIC: < 0.1 µg/mL
[2]
  MIC: 100 µg/mL (≈ 246 µM)
[3]
  MIC: 0.4 µg/mL (≈ 0.984 µM)
[4]
  MIC: 0.8 µg/mL (≈ 1.97 µM)
Streptococcus faecalis I
  MIC: 12.5 µg/mL (≈ 30.8 µM)
[5]
  MIC: < 0.1 µg/mL
[6]
  MIC: < 0.1 µg/mL
E. coli JT4 β-Lactamase; a = with preincubation
  IC50: 24.6 nM
E. coli JT4 β-Lactamase; b = without preincubation
  IC50: 984 nM
[7]; a = with preincubation
  IC50: 4.92 nM
[7]; b = without preincubation
  IC50: 615 nM
[8]; a = with preincubation
  β-Lactamase Inhibitory Activity I50: 0.003 µg/mL
[8]; b = without preincubation
  β-Lactamase Inhibitory Activity I50: 0.4 µg/mL
[9]; a = with preincubation
  IC50: 73.8 nM
[9]; b = without preincubation
  IC50: > 123000 nM
